Experimental data reported in US9272047B2, “Use of biological surfactant as anti-inflammatory agent and tissue preservative solution” (Shaperon Inc., priority 2007, dated 2016).
Entries after “also recorded” stand apart in the source; their conditions may differ.

Tests used:
[1] = test system: interaction between fluorescein-labeled E. coli LPS and a CHO cell; assay: Inhibition of the interaction between fluorescein (BODIPY)-labeled E. coli LPS and CHO cells, flow cytometry; format: cell-based, Chinese hamster; conditions: CHO cells, 7-AAD(−) living cells
Protocol: Boron dipyrromethene difluoride (BODIPY), a fluorescein, labeled E. coli LPS and CHO cells were used. BODIPY-labeled LPS was reacted with sodium glycocholate in a glass tube at 37° C. for 14 hours. 2×10^5 CHO cells mixed with the reacting solution were plated per well in a 96-well plate, and then incubated at 37° C. for 14 hours. The incubated solution was stained with 7-amino-actinomycin D (7-AAD) and then analyzed by a flow cytometer. The analysis was performed at least twice per each treatment group and the obtained data were statistically processed by t-test. The result was P<0.05 in comparison with the experimental group in which CHO cells were treated with only BODIPY-LPS.
7-AAD(−) cells were selected in order to analyze living cells. […] Therefore, it could be realized that Inflammatory inhibition efficacy of sodium glycocholate shown in the LPS-stimulated inflammatory response was due to the blocking of the interaction between LPS and cells by the action of sodium glycocholate.

macrophages [2] = assay: In vitro proinflammatory cytokine generation by E. coli LPS, macrophages (ELISA); format: cell-based, C57BL/6 mouse; conditions: LPS stimulation
Protocol: (§1) In order to assay the effect of sodium glycocholate on the generation of proinflammatory cytokines induced by E. coli LPS, dendritic cells were prepared in the same way as Example 3, and macrophages were separated from the abdomen of C57BL/6 mouse. Thereafter, sodium glycocholate and LPS were reacted in vitro for 1 hour at 37° C., and then mixed with the cells. Each cell was stimulated for 14 hours at 37° C., and then supernatant fluid was separated.
(§2) The concentrations of TNF-α and interleukin-12p40 in the separated supernatant fluid was measured by an enzyme-linked immunoabsorbent assay (ELISA).
(§3) Each group was treated and assayed at least twice, and the results were statistically analyzed through t-test. The results were p<0.05 compared with the experimental groups treated by only LPS.

dendritic cells [3] = assay: In vitro proinflammatory cytokine generation by E. coli LPS, dendritic cells (ELISA); format: cell-based, mouse; conditions: LPS stimulation
Protocol: as §1, §2, §3

macrophages [4] = assay: Inhibition of LPS-induced nitric oxide generation, macrophages (Griess); format: cell-based, mouse; conditions: macrophages stimulated by LPS, 18 hours
Protocol: (§4) Then, the resulting dendritic cell mixtures were plated, by […] each, in a 96-well plate. Griss reagents were added to each well, and the 96-well plate was covered with foils and kept reacting for 15 min at room temperature. Absorbance at 540 nm was measured using an ELISA reader. Macrophages separated from abdomen were also treated with sodium glycocholate, sodium taurochenodeoxycholate and sodium taurodeoxycholate, respectively, and then stimulated with LPS for 18 hours. Thereafter, the same experiments as the dentritic cells were performed to the macrophages.

dendritic cells [5] = assay: Inhibition of LPS-induced nitric oxide generation, dendritic cells (Griess); format: cell-based, mouse; conditions: dendritic cells stimulated by LPS, 18 hours
Protocol: as §4

[6] = test system: dendritic cell-mediated T cell; assay: Inhibition of the activation of dendritic cell-mediated T cell by E. coli LPS ([3H]-methylthymidine); format: cell-based, mouse
Protocol: Antigen presenting cells activated by LPS activates T cells. It was tested whether dendritic cells blocked by sodium glycocholate can activate T cells when LPS activates dendritic cells. Cells were harvested from the bone marrow of Rag2 deficient male mouse. The harvested cells were plated at 4×10^3 cells/well in a 96-well plate and treated with 1.5 ng/ml of […] and 0.75 ng/ml of interleukin-4, and then incubated for 6 days to differentiate into dendritic cells. Sodium glycocholate was reacted with LPS for 1 hour at 37° C., and then mixed with the dendritic cells. The dendritic cells were stimulated for 14 hours at 37° C., and CD3+ and CD4+ T cells separated from female Marilyn mouse having H-Y antigen-specific T cell receptor (TCR), were incubated with the dendritic cells for 72 hours. [3H]-methylthymidine was added, at 1 μCi/well, to the 96-well plate and then incubated for 18 hours. Cells were harvested from the 96-well plated and then CPM (count per minute) was measured through a beta counter.

[7] = test system: ischemia-reperfusion renal injury; assay: Ischemia-reperfusion renal injury model, organ preservative solution additive; format: in vivo, Sprague-Dawley rat; conditions: 0.5 mg/ml in HTK solution
Protocol: The effect of sodium glycocholate to inflammatory response and renal function in an ischemia-reperfusion renal injury model, was evaluated. Five Sprague-Dawley (SD) male rats of 6 weeks age were used per each group, and foods and waters were not supplied to all the rats from 1 day before the experiment. The rats were anesthetized by the administration of 1 mg avertin (tribromoethanol/amyl hydrate)/100 g rat to the abdomen of the rats, and then laparotomized. All the blood flow to a left kidney was blocked by clamping the aorta and vena cava using vascular clamps. Before injecting the organ preservative solution, a vein of the left kidney was penetrated to minimize physical damage of the kidney due to the preservative solution pressure. Then, after histidine-tyroptophan-ketoglutarate (HTK) or a mixture solution of HTK and 0.5 mg/ml of sodium glycocholate was injected, at 4 ml/rat, into the vein, the damaged part of the vein was sutured by using 10-0 suture. After 30 min maintenance of the above state, the vascular clamps were removed and the laparotomized part was sutured. […] The concentration of IL-6 in the serum was measured by a enzyme-linked immunosorbent assay, and the concentrations of blood urea nitrogen (BUN), creatinine (Cre) and aspartate aminotransferase (AST) in the plasma were measured by an automated analyzer.

[8] = test system: dendritic cell-mediated T cells; assay: Cytotoxicity to dendritic cell-mediated T cells (7AAD, FACS); format: cell-based, mouse
Protocol: The cytotoxicity of sodium glycocholate to the CHO cells, dendritic cells, T cells which were used in the above Examples was assayed. FACS analysis was performed after staining with 7AAD. First, sodium glycocholate was kept in vitro for 1 hour at 37° C., and then mixed with cells. CHO cells or dendritic cells were incubated for 14 hours at 37° C., and T cells which were mixed with 14 hour-incubated dendritic cells, were incubated for 4 days. Then, each cell was stained with 7AAD and cell analysis were carried out by using a flow cytometer.

Balb/c mice = assay: Acute toxicity in mice, single administration into abdomen or tail vein; format: in vivo
Protocol: Acute toxicity was measured by using five Balb/c mice of 6 weeks age per group, which were once administered with sodium glycocholate, at different sodium glycocholate concentrations, into the abdomen and tail vein. […] However, 250 mg/kg of sodium glycocholate at which the above-mentioned effects of sodium glycocholate, and the sodium glycocholate concentration of below 250 mg/kg, 100 % of the mice survived (FIGS. 32A-32B). Also, 100 % of the mice survived at the sodium glycocholate concentration of not exceeding 150 mg/kg in the experiment where sodium glycocholate of different concentrations was adiministered into tail vein of mice (FIG. 33).

In the case of `C[C@H](CCC(=O)NCC(=O)[O-])[C@H]1CC[C@H]2[C@@H]3[C@H](O)C[C@@H]4C[C@H](O)CC[C@]4(C)[C@H]3C[C@H](O)[C@]12C.[Na+]` [sodium glycocholate], the “interaction between BODIPY-LPS and the cell” value [1] is reported as “inhibited according to the increase of the concentration”, the “inhibition of generation of TNF-α” value (macrophages [2]; 0.5 mg/ml) is reported as 42.2±0.9% and the “inhibition of generation of interleukine-12p40” value (macrophages [2]; 0.5 mg/ml) is reported as 9.8±11.0%. For the same compound, the “inhibition of generation of TNF-α” value (macrophages [2]; 1 mg/ml) was 87.8±0.2%, the “inhibition of generation of interleukine-12p40” value (macrophages [2]; 1 mg/ml) was 54.3±4.1% and the “inhibition of generation of TNF-α” value (dendritic cells [3]; 0.5 mg/ml) was 70.2±2.3%. The “inhibition of generation of interleukine-12p40” value (dendritic cells [3]; 0.5 mg/ml) was 4.7±3.1%, the “inhibition of generation of TNF-α” value (dendritic cells [3]; 1 mg/ml) was 101.0±0.2% and the “inhibition of generation of interleukine-12p40” value (dendritic cells [3]; 1 mg/ml) was 106.6±1.3%. For the same compound, the “generation of NO” value (macrophages [4]) was “inhibited”, the “generation of NO” value (dendritic cells [5]) was “inhibited” and the “inhibition of proliferation of dendritic cell-mediated T cell” value ([6]; 0.5 mg/ml) was 104.9±3.2%. The “inhibition of proliferation of dendritic cell-mediated T cell” value ([6]; 1 mg/ml) was 105.1±3.2%, the ischemia-reperfusion renal injury [7] was “inhibited” and the cytotoxicity ([8]; 1 mg/ml) was “no significant cytotoxicity; also recorded: dose not have cytotoxicity”. For the same compound, the “7AAD(+) increase compared with the negative control group” value ([8]; 4 days) was 2-4%, the mice survived (Balb/c mice; abdominal administration, 250 mg/kg and below) was 100% and the “concentration (dose) at which toxicity was shown” value (Balb/c mice; abdominal administration, single dose) was > 500 mg/kg. For the same compound, the adverse effect (Balb/c mice; mouse test, dose of 250 mg/kg mouse) was “no adverse effect” and the mice survived (Balb/c mice; tail vein administration, not exceeding 150 mg/kg) was 100%.
